The record followed here is US10239832B2, “N-(1-hydroxy-3-(pyrrolidinyl)propan-2-yl)pyrrolidine-3-carboxamide derivatives as glucosylceramide synthase inhibitors” (BIOMARIN PHARMACEUTICAL INC., priority 2013, dated 2019).

pIC50: −log10 of the molar value.

For this experiment, the target named is T1, GCS (Canis lupus familiaris, UniProt A0A8I3MXG6).
T1 construct: endogenous in cells; host or cells: MDCK (Madin-Darby canine kidney) cells, whole-cell lysate
T1 sequence (A0A8I3MXG6 1-394): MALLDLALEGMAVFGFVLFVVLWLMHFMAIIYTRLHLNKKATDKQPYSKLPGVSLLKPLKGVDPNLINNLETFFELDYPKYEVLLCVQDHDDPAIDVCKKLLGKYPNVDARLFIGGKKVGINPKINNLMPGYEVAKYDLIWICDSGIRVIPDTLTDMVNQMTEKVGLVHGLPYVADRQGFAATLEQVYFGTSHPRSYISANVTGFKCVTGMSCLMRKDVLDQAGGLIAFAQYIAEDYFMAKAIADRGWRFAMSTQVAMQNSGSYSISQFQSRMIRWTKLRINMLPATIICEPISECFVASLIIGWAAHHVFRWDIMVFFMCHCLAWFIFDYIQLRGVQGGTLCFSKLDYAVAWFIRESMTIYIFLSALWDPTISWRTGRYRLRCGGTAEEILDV
As to the kind of experiment: GCS enzymatic assay (MDCK cell lysate, NBD-ceramide to glucosylceramide, LC/MS). The conditions noted are these: Table 2, the table does not say which of the assays; for pIC50: class symbols A, B, C, read-out: Data Range (IC50 values); for Data Range (% inhibition): class symbols D, E, F, NA (not active). The class given is biochemical, canine. An outline of the steps:
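IC50 or percent inhibition came from LC/MS/MS (ESI+, MRM) of NBD-ceramide and glucosylceramide, with tolbutamide as internal standard. The reaction used MDCK (canine) cell lysate as the enzyme source and was ended with acetonitrile. Mock wells received 0.1% DMSO.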

As for `O=C(N[C@H](CN1CCCC1)[C@H](O)c1ccc2c(c1)OCCO2)[C@H]1CCN(c2ccc3cc(Cl)sc3c2)C1` [Compound 76E, (S)-1-(2-chlorobenzo[b]thiophen-6-yl)-N-((1R,2R)-1-(2,3-dihydrobenzo[b][1,4]dioxin-6-yl)-1-hydroxy-3-(pyrrolidin-1-yl)propan-2-yl)pyrrolidine-3-carboxamide], the pIC50 (commonly the IC50 on a negative log10 scale, so that one unit is a factor of ten) is 7.52 to 9.00.

Turning to `O=C(N[C@H](CN1CCC1)[C@H](O)c1ccc2c(c1)OCCO2)[C@@H]1CCN(c2ccc(Cl)cc2)C1` [Compound 78, (R)-N-((1R,2R)-3-(azetidin-1-yl)-1-(2,3-dihydrobenzo[b][1,4]dioxin-6-yl)-1-hydroxypropan-2-yl)-1-(4-chlorophenyl)pyrrolidine-3-carboxamide], the pIC50 is 7.52 to 9.00.

Regarding `O=C(N[C@H](CN1CCC1)[C@H](O)c1ccc2c(c1)OCCO2)[C@@H]1CCN(c2ccc3cc(F)ccc3c2)C1` [Compound 79, (R)-N-((1R,2R)-3-(azetidin-1-yl)-1-(2,3-dihydrobenzo[b][1,4]dioxin-6-yl)-1-hydroxypropan-2-yl)-1-(6-fluoronaphthalen-2-yl)pyrrolidine-3-carboxamide], the pIC50 was 7.52 to 9.00.

On to `O=C(N[C@H](CN1CCC1)[C@H](O)c1ccc2c(c1)OCCO2)C1CCN(c2ccc3cc(F)ccc3c2)C1` (stereo partly drawn) [Compound 79A, N-((1R,2R)-3-(azetidin-1-yl)-1-(2,3-dihydrobenzo[b][1,4]dioxin-6-yl)-1-hydroxypropan-2-yl)-1-(6-fluoronaphthalen-2-yl)pyrrolidine-3-carboxamide], for which the pIC50 is 7.52 to 9.00.

For `O=C(N[C@H](CN1CCC1)[C@H](O)c1ccc2c(c1)OCCO2)[C@H]1CCN(c2ccc3cc(F)ccc3c2)C1` [Compound 79B, (S)-N-((1R,2R)-3-(azetidin-1-yl)-1-(2,3-dihydrobenzo[b][1,4]dioxin-6-yl)-1-hydroxypropan-2-yl)-1-(6-fluoronaphthalen-2-yl)pyrrolidine-3-carboxamide], the “Data Range (% inhibition)” value is given as “E (50-74% (or less than 75%))”.

For `O=C(N[C@H](CN1CCCC1)[C@H](O)c1ccc2c(c1)OCCO2)[C@@H]1CCN(c2ccc3c(c2)CCCC3)C1` [Compound 80, (R)-N-((1R,2R)-1-(2,3-dihydrobenzo[b][1,4]dioxin-6-yl)-1-hydroxy-3-(pyrrolidin-1-yl)propan-2-yl)-1-(5,6,7,8-tetrahydronaphthalen-2-yl)pyrrolidine-3-carboxamide], the “Data Range (% inhibition)” value is “E (50-74% (or less than 75%))”.

Turning to `O=C(N[C@H](CN1CCCC1)[C@H](O)c1ccc2c(c1)OCCO2)C1CCN(c2ccc3c(c2)CCCC3)C1` (stereo partly drawn) [Compound 80G, N-((1R,2R)-1-(2,3-dihydrobenzo[b][1,4]dioxin-6-yl)-1-hydroxy-3-(pyrrolidin-1-yl)propan-2-yl)-1-(5,6,7,8-tetrahydronaphthalen-2-yl)pyrrolidine-3-carboxamide], the pIC50 was 7.52 to 9.00.

For the compound `O=C(N[C@H](CN1CCCC1)[C@H](O)c1ccc2c(c1)OCCO2)[C@H]1CCN(c2ccc3c(c2)CCCC3)C1` [Compound 80H, (S)-N-((1R,2R)-1-(2,3-dihydrobenzo[b][1,4]dioxin-6-yl)-1-hydroxy-3-(pyrrolidin-1-yl)propan-2-yl)-1-(5,6,7,8-tetrahydronaphthalen-2-yl)pyrrolidine-3-carboxamide], the negative logarithm of the IC50 (pIC50) is 7.52 to 9.00.

As to `O=C(N[C@H](CN1CCCC1)[C@H](O)c1cc(F)c2c(c1)OCCO2)[C@@H]1CCN(c2ccc3ccccc3c2)C1` [Compound 81, (R)-N-((1R,2R)-1-(8-fluoro-2,3-dihydrobenzo[b][1,4]dioxin-6-yl)-1-hydroxy-3-(pyrrolidin-1-yl)propan-2-yl)-1-(naphthalen-2-yl)pyrrolidine-3-carboxamide], the pIC50 is 7.52 to 9.00.

As to `Cc1cc(N2CC[C@@H](C(=O)N[C@H](CN3CCCC3)[C@H](O)c3ccc4c(c3)OCCO4)C2)cc(C)n1` [Compound 82, (R)-N-((1R,2R)-1-(2,3-dihydrobenzo[b][1,4]dioxin-6-yl)-1-hydroxy-3-(pyrrolidin-1-yl)propan-2-yl)-1-(2,6-dimethylpyridin-4-yl)pyrrolidine-3-carboxamide], the “Data Range (% inhibition)” value was “NA (not active—a negative value was generated for % inhibition)”.

As for `Cc1cc(N2CC[C@H](C(=O)N[C@H](CN3CCCC3)[C@H](O)c3ccc4c(c3)OCCO4)C2)cc(C)n1` [Compound 82E, (S)-N-((1R,2R)-1-(2,3-dihydrobenzo[b][1,4]dioxin-6-yl)-1-hydroxy-3-(pyrrolidin-1-yl)propan-2-yl)-1-(2,6-dimethylpyridin-4-yl)pyrrolidine-3-carboxamide], the “Data Range (% inhibition)” value was “NA (not active—a negative value was generated for % inhibition)”.

With `O=C(N[C@H](CN1CCCC1)[C@H](O)c1ccc2c(c1)OCCO2)[C@@H]1CCN(c2ccc3nccnc3c2)C1` [Compound 83, (R)-N-((1R,2R)-1-(2,3-dihydrobenzo[b][1,4]dioxin-6-yl)-1-hydroxy-3-(pyrrolidin-1-yl)propan-2-yl)-1-(quinoxalin-6-yl)pyrrolidine-3-carboxamide], the “Data Range (% inhibition)” value was “F (1-49% (or less than 50%))”.

`O=C(N[C@H](CN1CCCC1)[C@H](O)c1ccc2c(c1)OCCO2)C1CCN(c2ccc3nccnc3c2)C1` (stereo partly drawn) [Compound 83C, N-((1R,2R)-1-(2,3-dihydrobenzo[b][1,4]dioxin-6-yl)-1-hydroxy-3-(pyrrolidin-1-yl)propan-2-yl)-1-(quinoxalin-6-yl)pyrrolidine-3-carboxamide]: the “Data Range (% inhibition)” value is listed as “F (1-49% (or less than 50%))”.

Turning to `O=C(N[C@H](CN1CCCC1)[C@H](O)c1ccc2c(c1)OCCO2)[C@H]1CCN(c2ccc3nccnc3c2)C1` [Compound 83D, (S)-N-((1R,2R)-1-(2,3-dihydrobenzo[b][1,4]dioxin-6-yl)-1-hydroxy-3-(pyrrolidin-1-yl)propan-2-yl)-1-(quinoxalin-6-yl)pyrrolidine-3-carboxamide], the “Data Range (% inhibition)” value is “NA (not active—a negative value was generated for % inhibition)”.

Consider `O=C(N[C@H](CN1CCCC1)[C@H](O)c1ccc(OC2CC2)c(Cl)c1)[C@@H]1CCN(c2ccc3cc(F)ccc3c2)C1` [Compound 84, (R)-N-((1R,2R)-1-(3-chloro-4-cyclopropoxyphenyl)-1-hydroxy-3-(pyrrolidin-1-yl)propan-2-yl)-1-(6-fluoronaphthalen-2-yl)pyrrolidine-3-carboxamide], for which the pIC50 is 7.52 to 9.00.

Consider `O=C(N[C@H](CN1CCCC1)[C@H](O)c1ccc(OC2CC2)c(Cl)c1)[C@H]1CCN(c2ccc3cc(F)ccc3c2)C1` [Compound 84A, (S)-N-((1R,2R)-1-(3-chloro-4-cyclopropoxyphenyl)-1-hydroxy-3-(pyrrolidin-1-yl)propan-2-yl)-1-(6-fluoronaphthalen-2-yl)pyrrolidine-3-carboxamide], for which the “Data Range (% inhibition)” value was “F (1-49% (or less than 50%))”.

On to `O=C(N[C@H](CN1CCC1)[C@H](O)c1cc(F)c2c(c1)OCCO2)[C@@H]1CCN(c2ccc3ccccc3c2)C1` [Compound 85, (R)-N-((1R,2R)-3-(azetidin-1-yl)-1-(8-fluoro-2,3-dihydrobenzo[b][1,4]dioxin-6-yl)-1-hydroxypropan-2-yl)-1-(naphthalen-2-yl)pyrrolidine-3-carboxamide], for which the pIC50 was 7.52 to 9.00.

Consider `O=C(N[C@H](CN1CCC1)[C@H](O)c1ccc(OC2CC2)c(Cl)c1)[C@@H]1CCN(c2ccc3ccccc3c2)C1` [Compound 86, (R)-N-((1R,2R)-3-(azetidin-1-yl)-1-(3-chloro-4-cyclopropoxyphenyl)-1-hydroxypropan-2-yl)-1-(naphthalen-2-yl)pyrrolidine-3-carboxamide], for which the pIC50 is 7.52 to 9.00.

Regarding `CC(C)(O)COc1ccc([C@@H](O)[C@@H](CN2CCCC2)NC(=O)[C@@H]2CCN(c3ccc(Cl)cc3)C2)cc1Cl` [Compound 87, (R)-N-((1R,2R)-1-(3-chloro-4-(2-hydroxy-2-methylpropoxy)phenyl)-1-hydroxy-3-(pyrrolidin-1-yl)propan-2-yl)-1-(4-chlorophenyl)pyrrolidine-3-carboxamide], the pIC50 is 7.52 to 9.00.

Consider `O=C(N[C@H](CN1CCCC1)[C@H](O)c1ccc2c(c1)OCCO2)[C@@H]1CCN(c2ccc3cc(F)ccc3c2Cl)C1` [Compound 88, (R)-1-(1-chloro-6-fluoronaphthalen-2-yl)-N-((1R,2R)-1-(2,3-dihydrobenzo[b][1,4]dioxin-6-yl)-1-hydroxy-3-(pyrrolidin-1-yl)propan-2-yl)pyrrolidine-3-carboxamide], for which the “Data Range (% inhibition)” value is “D (75-100%)”.

As for `O=C(N[C@H](CN1CCCC1)[C@H](O)c1ccc2c(c1)OCCO2)C1CCN(c2ccc3cc(F)ccc3c2Cl)C1` (stereo partly drawn) [Compound 88C, 1-(1-chloro-6-fluoronaphthalen-2-yl)-N-((1R,2R)-1-(2,3-dihydrobenzo[b][1,4]dioxin-6-yl)-1-hydroxy-3-(pyrrolidin-1-yl)propan-2-yl)pyrrolidine-3-carboxamide], the “Data Range (% inhibition)” value was “D (75-100%)”.

Turning to `O=C(N[C@H](CN1CCCC1)[C@H](O)c1ccc2c(c1)OCCO2)[C@H]1CCN(c2ccc3cc(F)ccc3c2Cl)C1` [Compound 88D, (S)-1-(1-chloro-6-fluoronaphthalen-2-yl)-N-((1R,2R)-1-(2,3-dihydrobenzo[b][1,4]dioxin-6-yl)-1-hydroxy-3-(pyrrolidin-1-yl)propan-2-yl)pyrrolidine-3-carboxamide], the “Data Range (% inhibition)” value is given as “F (1-49% (or less than 50%))”.
